The source of these data is patent US12037417B2, “Site-specific radioisotope-labeled antibody using IgG-binding peptide” (Kagoshima University, priority 2016, dated 2024).

One assay concerns the target human IgG (Homo sapiens, UniProt P01857). The assay is described as follows: SPR affinity analysis of IgG-binding peptides on immobilized IgG (BIAcore T200). Particulars: for ka / kd: SPR, peptides N-terminally blocked with biotinylated PEG4, NHS group hydrolysed. The arrangement: kd: unit not given here. The method, then:
0.4 M EDC (1-ethyl-3-(3-dimethylaminopropyl)-carbodiimide) and 0.1 M sulfo-NHS (sulfo-N-hydroxysuccinimide) were mixed in equal amounts and then injected onto a CMS sensor chip loaded in BIAcore T200 (GE Healthcare Japan Corp.) for 7 minutes at a flow rate of […] to activate the sensor chip. IgG was immobilized thereonto in an amount of 4000 to 5000 in terms of RU value under conditions of pH 4.0 (10 mM sodium acetate). While a HBS-EP buffer solution (0.01 M HEPES, 0.15 M NaCl, 0.005% Tween 20, and 3 mM EDTA, pH 7.0) was used, binding reaction was monitored by the injection of the peptide at a concentration of 10 nM to 2 μM for 180 seconds at a flow rate of […]. Then, dissociation reaction was assayed by washing with a buffer solution for 600 seconds. Binding parameters were analyzed using BIAevalution T100 software.

Another assay addresses T1, hIgG (Homo sapiens, UniProt P01857).
T1 construct: purchased Chugai Pharmaceutical Co., Ltd
As to the kind of experiment: ELISA of biotinylated IgG-binding peptide on plate-adsorbed hIgG. The note with it: peptide unmodified with cross-linking agent. The protocol: A 0.1 M NaHCO3 solution containing each protein (IgG (Chugai Pharmaceutical Co., Ltd.), IgA (Athens Research & Technology, Inc.), or bovine gelatin (Wako Pure Chemical Industries, Ltd.)) (50 ng (0.33 pmol)/μ1/well) was added to wells of a 96-well microplate (Nunc® MaxiSorp), and the plate was left overnight at room temperature to adsorb each protein onto the surface of the plate. After blocking with 0.5% BSA, a biotinylated IgG-binding peptide modified with DSG (molar ratio: 0, 1, 2, 5, or 10), prepared in the same way as in Example 2 was added to each well. After 1 hour, the reaction was terminated by the addition of 1 M Tris-HCl (pH 7.0) at 3 μL/well. SA-HRP (Vector Laboratories, Inc.) diluted 2000-fold with 0.5% BSA was added thereto at 50 μL/well and reacted at room temperature for 1 hour. Then, the plate was washed five times with 0.1% PBST. Then, a TMB solution (Wako Pure Chemical Industries, Ltd.) was used in the color development of HRP. After 5-minute chromogenic reaction, the absorbance at 450 nm was measured using an ELISA plate reader (model 680 microplate reader (Bio-Rad Laboratories, Inc.)).
The biotinylated IgG-binding peptide modified with DSG was added at a molar ratio of 2 to hIgG (50 ng) immobilized overnight at 4° C. with a 50 ng/50 μL solution. […] The binding was detected in the same way as in (A).
(In an ELISA, binding on a coated surface is turned into a signal by an enzyme label.)

Sequence of human IgG (P01857 1-328): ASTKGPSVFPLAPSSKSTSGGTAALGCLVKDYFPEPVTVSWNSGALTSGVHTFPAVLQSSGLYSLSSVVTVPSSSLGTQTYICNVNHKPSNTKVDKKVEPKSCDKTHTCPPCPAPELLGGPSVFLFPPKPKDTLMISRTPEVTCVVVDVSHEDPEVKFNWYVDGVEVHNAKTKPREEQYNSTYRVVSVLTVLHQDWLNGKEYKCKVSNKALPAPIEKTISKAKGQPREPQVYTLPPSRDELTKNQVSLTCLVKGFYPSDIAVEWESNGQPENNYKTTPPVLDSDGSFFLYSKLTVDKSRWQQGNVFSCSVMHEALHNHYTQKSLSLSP
T1 sequence (P01857 1-328): as above

On human IgG, “GDDCAYHK(DSG-OH)GELVWCTFH-NH2 [Type I(R8K)-DSG-OH]” yielded a ka of 3.29E+05 and a kd of 0.1036.
With “GDDCAYHK(DSS-OH)GELVWCTFH-NH2 [Type I(R8K)-DSS-OH]”, at human IgG, the ka is reported as 1.68E+05 and the kd worked out at 0.06136.
Regarding GDDCAYHKGELVWCTFH-NH2 [Type I(R8K)], on hIgG, the “binding to hIgG (ELISA)” value is given as “Very weak binding”. The “decrease of affinity for human IgG as compared with Type I” value at human IgG (R8K substitution versus peptide before substitution) is 10 times. On human IgG, this substance showed a ka of 1.25E+06 and a kd of 0.195.
At human IgG, GPDCAYHRGELVWCTFH-NH2 [Type I] showed a ka of 1.57E+06 and a kd of 0.0144.
